The values that follow are results of earlier work, collected in patent publication US5703067A, “Inhibitors of farnesyl-protein transferase” (Merck & Co., Inc., priority 1995, dated 1997).

The subject of the data set is farnesyl-protein transferase. As to conditions: via HMG-CoA reductase inhibition, literature.

`CC[C@H](C)C(=O)O[C@H]1CCC=C2C=C[C@H](C)[C@H](CC[C@@H]3C[C@@H](O)CC(=O)O3)[C@H]21` [compactin]: the “Indirect inhibition of farnesyl-protein transferase in vivo” value is “Indirect inhibition of farnesyl-protein transferase in vivo has been demonstrated”.

On to `CC[C@H](C)C(=O)O[C@H]1C[C@@H](C)C=C2C=C[C@H](C)[C@H](CC[C@@H]3C[C@@H](O)CC(=O)O3)[C@H]21` [lovastatin], for which the “Indirect inhibition of farnesyl-protein transferase in vivo” value is listed as “Indirect inhibition of farnesyl-protein transferase in vivo has been demonstrated”.
